Laboratory results published in US20220227997A1, “Elastomeric silicone compositions comprising glycerol, cyclodextrin and octenidine” (Coloplast A/S, priority 2019, published 2022).
Counter-ions that a name gives are not always drawn.

How the values were obtained:
[1] = system: gram positive and gram negative bacteria; settings: generally; cited from earlier work
[2] = in water; estimated by Steward et al.; cited from earlier work
Proteus mirabilis = settings: suspension test after 5 minutes of exposure; cited from earlier work
Candida albicans = settings: suspension test after 5 minutes of exposure; cited from earlier work
Pseudomonas aeruginosa = settings: suspension test after 5 minutes of exposure; cited from earlier work
Escherichia coli = settings: suspension test after 5 minutes of exposure; cited from earlier work
[3] = Solubilization of octenidine in glycerol; format: physicochemical; settings: without cyclodextrin
Text: Octenidine is an amphiphilic substance therefore its solubility in glycerol is negligible, but may form micelles for higher solubility. In this study β-cyclodextrin (βCD) was used as a tool for allowing significant amounts of hydrophobic substances to be dissolved in hydrophilic media such as glycerol. Cyclodextrins as cyclic oligosaccharides that form host-guest complexes with hydrophobic molecules thereby enabling multiple potential uses. Here octenidine (0.35 g) and β-cyclodextrin (0.3182 g) were added to glycerol. The molar ratio between octenidine and β-cyclodextrin in the example was 2:1. The mixture was heated up to 80° C. and agitated using a magnetic stirrer until a clear solution was obtained (usually no longer than 30 minutes). Obtaining a clear mixture is indicative of successful preparation of a βCD-octenidine complex.

Staphylococcus aureus = settings: suspension test after 5 minutes of exposure; cited from earlier work

Row | solubility in glycerol [3] | Structure (SMILES) | Effective concentrations in suspension [1] | critical micellar concentration [2] [mM] | Effective Concentration (Proteus mirabilis) [%] | Effective Concentration (Candida albicans) [%] | Effective Concentration (Pseudomonas aeruginosa) [%] | Effective Concentration (Escherichia coli) [%] | Effective Concentration (Staphylococcus aureus) [%]
1 | negligible | CCCCCCCCN=c1ccn(CCCCCCCCCCn2ccc(=NCCCCCCCC)cc2)cc1 [Octenidine dihydrochloride, N-octyl-1-[10-(4-octyliminopyridin-1-yl)decyl]pyridin-4-imine dihydro-chloride] | above 0.005 wt % | 3.79 | 0.025 | 0.01 | 0.025 | 0.025 | 0.025
2 |  | [H]/N=C(\N/C(=N/[H])NCCCCCCNC(=N)NC(=N)Nc1ccc(Cl)cc1)Nc1ccc(Cl)cc1 [Chlorhexidine digluconate] |  |  | >0.2 | 0.025 | >0.2 | 0.1 | >0.2
